# The supplement of paper PMC4862054
# Legend:
# Conditions in all cases: incubation time: 72 h
# MDA-MB-436 [1] = test: normalised response (% of control), CellTiter-Glo; higher = more viable cells (100 = DMSO, 0 = benzethonium chloride kill control)
# Protocol: (§1)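 DSRT, 72 h incubation, CellTox Green / CellTiter-Glo readout. Signal is normalised to DMSO and benzethonium chloride controls. Value is the normalised response at dose 3.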
# DU-4475 [2] = test: as above
# Protocol: as §1
# HDQ-P1 [3] = test: as above
# Protocol: as §1
# SK-BR-3 [4] = test: as above
# Protocol: as §1
# MDA-MB-468 [5] = test: as above
# Protocol: as §1
# MDA-MB-453 [6] = test: as above
# Protocol: as §1
# CAL-120 [7] = test: as above
# Protocol: as §1
# CAL-148 [8] = test: as above
# Protocol: as §1
# CAL-51 [9] = test: as above
# Protocol: as §1
# MDA-MB-231 [10] = test: as above
# Protocol: as §1
# Hs578T [11] = test: as above
# Protocol: as §1
# MCF-10A [12] = test: as above
# Protocol: as §1
# BT-474 [13] = test: as above
# Protocol: as §1
# BT-549 [14] = test: as above
# Protocol: as §1
# MFM-223 [15] = test: as above
# Protocol: as §1
# HCC1937 [16] = test: as above
# Protocol: as §1
# HCC1599 [17] = test: as above
# Protocol: as §1
# CAL-85-1 [18] = test: as above
# Protocol: as §1
# HCC1143 [19] = test: as above
# Protocol: as §1
# MDA-MB-436 [20] = test: normalised response (% of control), CellTox Green; higher = less cell death (100 = DMSO, 0 = benzethonium chloride kill control)
# Procedure, shortened: (§2)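 Two readouts were taken after 72 h: CellTox Green fluorescence (485/520 nm) first, then CellTiter-Glo luminescence after 10 min at room temperature. Breast cancer cell lines had been seeded as 20 µl suspension into 384-well plates holding compound at 5 concentrations in 10-fold steps across a compound-specific 10,000-fold range. Each value is a normalised signal at a single concentration, with plates scaled to 0.1 % DMSO (100) and a positive kill control (0).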
# DU-4475 [21] = test: as above
# Procedure, shortened: as §2
# MDA-MB-468 [22] = test: as above
# Procedure, shortened: as §2
# MDA-MB-453 [23] = test: as above
# Procedure, shortened: as §2
# CAL-120 [24] = test: as above
# Procedure, shortened: as §2
# CAL-148 [25] = test: as above
# Procedure, shortened: as §2
# CAL-51 [26] = test: as above
# Procedure, shortened: as §2
# Hs578T [27] = test: as above
# Procedure, shortened: as §2
# MCF-10A [28] = test: as above
# Procedure, shortened: as §2
# BT-474 [29] = test: as above
# Procedure, shortened: as §2
# BT-549 [30] = test: as above
# Procedure, shortened: as §2
# MFM-223 [31] = test: as above
# Procedure, shortened: as §2
# HCC1937 [32] = test: as above
# Procedure, shortened: as §2
# HCC1599 [33] = test: as above
# Procedure, shortened: as §2
# CAL-85-1 [34] = test: as above
# Procedure, shortened: as §2
# HCC1143 [35] = test: as above
# Procedure, shortened: as §2
# MDA-MB-231 [36] = test: as above
# Procedure, shortened: as §2
# MDA-MB-436 [37] = test: normalised response (% of control), CellTiter-Glo; higher = more viable cells (100 = DMSO, 0 = benzethonium chloride kill control); remark: listed apart in the source
# Procedure, shortened: as §2
# DU-4475 [38] = test: as above; remark: listed apart in the source
# Procedure, shortened: as §2
# HDQ-P1 [39] = test: as above; remark: listed apart in the source
# Procedure, shortened: as §2
# SK-BR-3 [40] = test: as above; remark: listed apart in the source
# Procedure, shortened: as §2
# MDA-MB-468 [41] = test: as above; remark: listed apart in the source
# Procedure, shortened: as §2
# MDA-MB-453 [42] = test: as above; remark: listed apart in the source
# Procedure, shortened: as §2
# CAL-120 [43] = test: as above; remark: listed apart in the source
# Procedure, shortened: as §2
# CAL-148 [44] = test: as above; remark: listed apart in the source
# Procedure, shortened: as §2
# CAL-51 [45] = test: as above; remark: listed apart in the source
# Procedure, shortened: as §2
# MDA-MB-231 [46] = test: as above; remark: listed apart in the source
# Procedure, shortened: as §2
# Hs578T [47] = test: as above; remark: listed apart in the source
# Procedure, shortened: as §2
# MCF-10A [48] = test: as above; remark: listed apart in the source
# Procedure, shortened: as §2
# BT-474 [49] = test: as above; remark: listed apart in the source
# Procedure, shortened: as §2
# BT-549 [50] = test: as above; remark: listed apart in the source
# Procedure, shortened: as §2
# MFM-223 [51] = test: as above; remark: listed apart in the source
# Procedure, shortened: as §2
# HCC1937 [52] = test: as above; remark: listed apart in the source
# Procedure, shortened: as §2
# HCC1599 [53] = test: as above; remark: listed apart in the source
# Procedure, shortened: as §2
# CAL-85-1 [54] = test: as above; remark: listed apart in the source
# Procedure, shortened: as §2
# HCC1143 [55] = test: as above; remark: listed apart in the source
# Procedure, shortened: as §2
# HDQ-P1 [56] = test: normalised response (% of control), CellTox Green; higher = less cell death (100 = DMSO, 0 = benzethonium chloride kill control)
# Procedure, shortened: as §2
smiles,measurement,setting,value
Cc1cc(C(C)Nc2ccccc2)c2nc(N3CCOCC3)cc(=O)n2c1 (configuration not stated) [TGX-221] (100 nM),normalised response,MDA-MB-436 [1],94%
same,normalised response,DU-4475 [2],95.8%
same,normalised response,HDQ-P1 [3],98.7%
same,normalised response,SK-BR-3 [4],99.7%
same,normalised response,MDA-MB-468 [5],86.4%
same,normalised response,MDA-MB-453 [6],93.2%
same,normalised response,CAL-120 [7],97.2%
same,normalised response,CAL-148 [8],100%
same,normalised response,CAL-51 [9],65.8%
same,normalised response,MDA-MB-231 [10],92.7%
same,normalised response,Hs578T [11],93.9%
same,normalised response,MCF-10A [12],93.5%
same,normalised response,BT-474 [13],90.1%
same,normalised response,BT-549 [14],86.5%
same,normalised response,MFM-223 [15],94%
same,normalised response,HCC1937 [16],88.1%
same,normalised response,HCC1599 [17],113%
same,normalised response,CAL-85-1 [18],99.7%
same,normalised response,HCC1143 [19],96.4%
same,normalised response,MDA-MB-436 [20],97%
same,normalised response,DU-4475 [21],99.1%
same,normalised response,MDA-MB-468 [22],52.6%
same,normalised response,MDA-MB-453 [23],96%
same,normalised response,CAL-120 [24],105%
same,normalised response,CAL-148 [25],81%
same,normalised response,CAL-51 [26],90.6%
same,normalised response,Hs578T [27],98.5%
same,normalised response,MCF-10A [28],108%
same,normalised response,BT-474 [29],89.3%
same,normalised response,BT-549 [30],92.5%
same,normalised response,MFM-223 [31],99.2%
same,normalised response,HCC1937 [32],80.5%
same,normalised response,HCC1599 [33],95.3%
same,normalised response,CAL-85-1 [34],114%
same,normalised response,HCC1143 [35],74.4%
O=c1[nH]c(=O)n([C@H]2C[C@H](O)[C@@H](CO)O2)cc1F [Floxuridine] (100 nM),normalised response,MDA-MB-436 [1],74.6%
same,normalised response,DU-4475 [2],103%
same,normalised response,HDQ-P1 [3],90.8%
same,normalised response,SK-BR-3 [4],71.4%
same,normalised response,MDA-MB-468 [5],86.1%
same,normalised response,MDA-MB-453 [6],116%
same,normalised response,CAL-120 [7],99.3%
same,normalised response,CAL-148 [8],110%
same,normalised response,CAL-51 [9],57.2%
same,normalised response,MDA-MB-231 [10],100%
same,normalised response,Hs578T [11],28%
same,normalised response,MCF-10A [12],109%
same,normalised response,BT-474 [13],99.3%
same,normalised response,BT-549 [14],94.4%
same,normalised response,MFM-223 [15],113%
same,normalised response,HCC1937 [16],75.4%
same,normalised response,HCC1599 [17],66.8%
same,normalised response,CAL-85-1 [18],57%
same,normalised response,HCC1143 [19],103%
same,normalised response,MDA-MB-436 [20],115%
same,normalised response,DU-4475 [21],107%
same,normalised response,MDA-MB-468 [22],96.2%
same,normalised response,MDA-MB-453 [23],104%
same,normalised response,CAL-120 [24],107%
same,normalised response,CAL-51 [26],95.6%
same,normalised response,MDA-MB-231 [36],115%
same,normalised response,Hs578T [27],103%
same,normalised response,MCF-10A [28],97.8%
same,normalised response,BT-474 [29],102%
same,normalised response,BT-549 [30],114%
same,normalised response,MFM-223 [31],98.5%
same,normalised response,HCC1937 [32],51.1%
same,normalised response,HCC1599 [33],113%
same,normalised response,CAL-85-1 [34],87.3%
same,normalised response,HCC1143 [35],63.4%
FC(F)c1nc2ccccc2n1-c1nc(N2CCOCC2)nc(N2CCOCC2)n1 [ZSTK474] (1000 nM),normalised response,MDA-MB-436 [37],56.8%
same,normalised response,DU-4475 [38],87.9%
same,normalised response,HDQ-P1 [39],51.9%
same,normalised response,SK-BR-3 [40],35.2%
same,normalised response,MDA-MB-468 [41],58.3%
same,normalised response,MDA-MB-453 [42],40.4%
same,normalised response,CAL-120 [43],65.4%
same,normalised response,CAL-148 [44],69.2%
same,normalised response,CAL-51 [45],49.7%
same,normalised response,MDA-MB-231 [46],61.6%
same,normalised response,Hs578T [47],45.4%
same,normalised response,MCF-10A [48],47.5%
same,normalised response,BT-474 [49],70.3%
same,normalised response,BT-549 [50],42.4%
same,normalised response,MFM-223 [51],55.8%
same,normalised response,HCC1937 [52],69.7%
same,normalised response,HCC1599 [53],79.1%
same,normalised response,CAL-85-1 [54],49.8%
same,normalised response,HCC1143 [55],73.5%
same,normalised response,MDA-MB-436 [20],85.9%
same,normalised response,DU-4475 [21],102%
same,normalised response,HDQ-P1 [56],49.5%
same,normalised response,MDA-MB-468 [22],79.9%
same,normalised response,MDA-MB-453 [23],103%
same,normalised response,CAL-120 [24],107%
same,normalised response,CAL-148 [25],89.5%
same,normalised response,CAL-51 [26],92.8%
same,normalised response,MDA-MB-231 [36],90.3%
same,normalised response,Hs578T [27],104%
same,normalised response,MCF-10A [28],57.7%
same,normalised response,BT-474 [29],90.7%
same,normalised response,BT-549 [30],95.5%
same,normalised response,MFM-223 [31],71%
same,normalised response,HCC1937 [32],101%
same,normalised response,HCC1599 [33],96.3%
same,normalised response,CAL-85-1 [34],101%
same,normalised response,HCC1143 [35],77.2%
